Assay results reported in patent US20070213411A1, “Dispersions And Methods Of Preparing Them” (The Australian National University, priority 2003, published 2007).

Assays:
[1] = Theoretical water droplet contact angle on the oil surface (Young's wetting equation); type: physicochemical; conditions: calculated by Young's wetting equation
Procedure: This can be attributed to the fact that the more soluble oils undergo Ostwald ripening, allowing rapid oil droplet growth. The more hydrophobic an oil the better it is for use in methods described herein as Ostwald ripening cannot occur. A degree of hydrophobicity can be estimated by applying the Young's wetting equation to a theoretical liquid/liquid drop profile. A theoretical water droplet contact angle on the oil surface can be calculated, and if this angle is higher than about 80°, preferably higher than 90° then the oil is sufficiently hydrophobic. For example, for dodecane, the theoretical droplet contact angle is 110°. However, it should be noted that selection of a suitable carrier liquid or oil according to theoretical contact angles is a guide only and that liquids or oils having a theoretical contact angle of about 80° are not necessarily less preferred than those having a higher theoretical contact angle.

[2] = cited from earlier work; for Surface tension: against air; for Interfacial tension: against water
[3] = Dispersion in water and its stability after vigorous shaking, de-gassed versus gassed (turbidity, visual); type: physicochemical; conditions: for time the dispersion is maintained / stable: de-gassed mixture in water after vigorous shaking, no added dispersants; for quality of dispersion in water (turbidity / visual): de-gassed; for quality of dispersion in water (turbidity / visual) / quality of dispersion in water (visual): after vigorous shaking; for quality of dispersion in water (visual): gassed
Procedure: (§1) The enhancement of oil droplet dispersion in water is most easily monitored using turbidity measurements. This enhancement can be measured by the difference between the new system (degassed) and the gassed blank, following vigorous shaking. […] Turbidity is a measure of how many droplets are dispersed in a given phase and is measured in NTU (nephelometric turbidity units) and in the results presented here is measured by light scattering. To give an understanding of the magnitude of these turbidity values, distilled water has a turbidity of 0.02 NTU, while tap water has a value of 1-2 NTU. Although useful, NTU measurements are of limited value and the results can be inaccurate if the refractive index of the dispersed phase is close to that of the dispersing phase (such as with perfluorocarbons in water) and so in some cases dynamic light scattering (DLS) has been used to obtain the droplet size distribution, as well as the charge on the oil droplets. However, careful interpretation of the DLS results is required for poly-disperse samples. Mono-disperse samples show size distribution by volume graphs (see later) over similar size ranges to the Z-average (diameter) and have a small PDI value (poly-dispersity index). The magnitude of the PDI is a measure of poly-dispersity. For poly-disperse samples the Z-average is the best estimate of average droplet size.
(§2) Mixtures of oil and water were de-gassed by a process of repeated freezing in liquid nitrogen, followed by pumping down to a pressure of 0.01 mbar and then melting in a sealed tube. The dissolved gas produced on each melting cycle was removed on re-freezing. Although this process was carried out five times, typically no further de-gassing on melting was observed after 3-4 cycles. […] (It should be noted that membrane separators and vacuum towers are used to de-gas liquids commercially.)
(§3) Dispersion of oil in water was achieved by vigorous shaking of the mixture for 8 sec in a sealed Pyrex tube. Turbidity was measured using an HF Scientific Micro 100 Turbidimeter. Particle sizes and zeta potentials were measured using a Malvern Zetasizer.

[4] = Droplet size distribution of oil-in-water dispersions by dynamic light scattering (Malvern Zetasizer); type: physicochemical; conditions: 0.2 ml/25 ml water
Procedure: as §1, §2, §3

[5] = Zeta potential of oil droplets (Malvern Zetasizer); type: physicochemical; conditions: de-gassed mixture in water
Procedure: as §2, §3

## FC(F)(F)C(F)(F)C(F)(F)C(F)(F)C(F)(F)C(F)(F)F [C6F14, perfluorohexane]
[1]
  Theoretical contact angle (water droplet on oil surface): 111° ^
[2]
  Surface tension: 11.91 mN/m
  Interfacial tension: 38 mN/m
[3]
  time the dispersion is maintained / stable: many hours
  quality of dispersion in water (turbidity / visual): readily dispersed
[3]; gassed mixture, 0.2 ml/25 ml water
  time to phase separation after vigorous shaking: less than a minute

## FC(F)(F)C(F)(F)C(F)(F)C(F)(F)C(F)(F)C(F)(F)C(F)(F)F [C7F16, perfluoroheptane]
[1]
  Theoretical contact angle (water droplet on oil surface): 112°^
[2]
  Surface tension: 12.85 mN/m
  Interfacial tension: 39.7 mN/m

## FC(F)(F)C(F)(F)C(F)(F)C(F)(F)C(F)(F)C(F)(F)C(F)(F)C(F)(F)F [C8F18, perfluorooctane]
[1]
  Theoretical contact angle (water droplet on oil surface): 113° ^
[2]
  Surface tension: 14.00 mN/m
  Interfacial tension: 42 mN/m

## FC(F)(F)C(F)(F)C(F)(F)C(F)(F)C(F)(F)C(F)(F)C(F)(F)C(F)(F)Br [Perflubron, perfluorooctyl bromide]
[1]
  Theoretical contact angle (water droplet on oil surface): 113°
[4]; de-gassed, 1 hour after vigorous shaking
  average droplet diameter: about 0.6 microns
[4]; de-gassed, at one hour
  PDI (poly-dispersity index): 0.430
  Z-average size: 599.6 nm
  droplet size of size graph (Diam): 437.6 nm
[4]; gassed, after 1 hour
  PDI (poly-dispersity index): 0.674
[4]; gassed, at one hour
  Z-average size: 1176 nm
[2]
  Surface tension: 18 mN/m
  Interfacial tension: 47 mN/m
[5]
  zeta potential of droplets: −42 mV
[3]
  time the dispersion is maintained / stable: many hours
  quality of dispersion in water (turbidity / visual): enhanced dispersion due to de-gassing is observed

## CC(C)c1cccc(C(C)C)c1O [Propofol, 2,6-diisopropyl phenol]
[3]; de-gassed dispersion exposed to high salt levels, above those found in human blood
  effect of added salt on the dispersion: unaffected by the addition of salt
[3]
  time the dispersion is maintained / stable: many hours
  quality of dispersion in water (turbidity / visual): complete dispersion of the oil
  quality of dispersion in water (visual): many large, visible droplets of the oil

## CCCCCCCCCCCC [dodecane, reference compound]
[1]
  Theoretical contact angle (water droplet on oil surface): 110 °

## COC1=CC(=O)C[C@@H](C)[C@]12Oc1c(Cl)c(OC)cc(OC)c1C2=O [griseofulvin]
[3]; 0.05 g dissolved in 10 ml soybean oil, 0.2 ml of this dispersed in 25 ml water
  turbidity after dispersion by vigorous shaking: the same as those obtained for soybean oil alone
[3]
  quality of dispersion in water (turbidity / visual): clearly well dispersed
  quality of dispersion in water (visual): solid clumps and a more transparent solution
